According to ChEMBL document CHEMBL3507680, “University of Dundee, Gates Library screen for HepG2 cell viability”:

assay: Human HepG2 cell viability assay in 384 well format; type: toxicity, cell-based; parameters: dose 125 nL, time 70.5 hour; concentration not given beside the values; details: HepG2 cells, read-out: Inhibition

| SMILES | cytotoxicity at 70.5 h |
| --- | --- |
| COc1cccc(CNC(=O)CCC2=Nc3ccccc3S(=O)(=O)N2)c1 | -1.77% |
| O=C(c1cscn1)N1CCC2(CCN(Cc3nccs3)CC2)CC1 | -14.7% |
| CC(=O)N1CCO[C@@H]2CN(Cc3cccc(Cl)c3)C[C@@H]2C1 | -2.75% |
| COCc1ccc(C(=O)N2CCC(c3cc4nccnc4[nH]3)CC2)cc1 | -14.3% |
| CCC(CNS(C)(=O)=O)Oc1ccccc1C (stereo not given) | -3.25% |
| CNc1cncc(C2CCN(S(C)(=O)=O)CC2)n1 | -2.96% |
| COCCN(C/C=C/c1ccccc1)Cc1nccs1 | 2.82% |
| CCC(NC(=O)c1cnc(N(C)C)nc1C)c1ccc(S(C)(=O)=O)cc1 (stereo not given) | -8.61% |
| O=c1cc(CN(CCO)C2CC2)nc2ccc(Br)cn12 | -4.99% |
| Cc1ncc2c(n1)CN(CC(=O)Nc1ccc(Cl)cn1)CC2 | -13.8% |
| CN1CCN(C(=O)[C@H]2C[C@H]3[C@H](CCN3Cc3cccs3)O2)CC1 | -2.03% |
| CCC(NC(=O)c1ccc(OC)nn1)c1nc(C(F)(F)F)cs1 (stereo not given) | -6.03% |
| CCC(=O)N1CCN(C(=O)Nc2ccccc2-c2cccs2)CC1 | -5.63% |
| Cc1c[nH]nc1C1CCN(c2cnccn2)C1 (stereo not given) | 5.06% |
| Cc1ccc(-c2ncc(C(=O)NCCNC(=O)C3CC3)s2)c(C)c1 | -6.37% |
| CC(C)c1cc(C(=O)NCCCN(C)C)nc(N2CCCC2)n1 | -8.44% |
| Cc1ncsc1CN1CC2(CCCC2)CC1=O | 0.928% |
| Cc1nc(-c2ccc(CNS(=O)(=O)N(C)C)cc2)ccc1C(N)=O | -2.19% |
| O=C(NCC1CC1)C1CN(Cc2cccs2)Cc2ccnn2C1 (stereo not given) | -13.4% |
| CC(=O)Nc1ccc(CC(=O)N2CC(S(=O)(=O)C3CCCCC3)C2)cc1 | -3.63% |
| COc1nc(C)ccc1CNc1cc(N2CCCC2CO)ncn1 (stereo not given) | 7.33% |
| Cc1nn(C)c(C)c1CN(C)S(=O)(=O)c1c(C)n[nH]c1C | -5.08% |
| c1cc2c(cc1C1(CNC3=NCCN3)CCCC1)OCCO2 | -3.87% |
| O=C(CC1CCCC1)NCCS(=O)(=O)N1CCN(c2ccccn2)CC1 | -13% |
| O=C(NCCO)NCC(c1ccccc1)N1CCc2sccc2C1 (stereo not given) | -13.1% |
| COCCN(Cc1ccccc1)C(=O)c1cnn(C)c1C | -8.55% |
| O=C([C@H]1CCCO1)N1CC[C@H](O)[C@@H]1Cc1ccncc1 | 1.55% |
| CN1CCCC[C@@H]2[C@H]1[C@@H](c1ccccc1)CCN2C(=O)c1cnccn1 | 1.76% |

| SMILES | cytotoxicity at 70.5 h |
| --- | --- |
| CC(C)=CCC1(CO)CCCN(S(C)(=O)=O)C1 (stereo not given) | 1.79% |
| CS(=O)(=O)NC1CCCN(C(=O)Nc2cccnc2)C1 (stereo not given) | 25.1% |
| COc1cccc(OCC(=O)NS(=O)(=O)c2ccc(Br)s2)c1 | 0.256% |
| CCC1=N[C@@]2(CC[C@@H]3CN(CC(C)C)C[C@@H]32)C(=O)N1 | -2.78% |
| Cc1nn(C)c(C)c1CCC(=O)N1CCN(CCn2cncn2)CC1 | 14.9% |
| Cc1nn(C(C)C)c(C)c1S(=O)(=O)Nc1cccc(F)c1 | -0.473% |
| Cn1cc(CC(=O)N2CCCC(c3cc(C(F)(F)F)[nH]n3)C2)cn1 (stereo not given) | 15.9% |
| CN(C)CCN1CCOCC2(C1)CN(Cc1ccsc1)CCO2 (stereo not given) | -9.68% |
| O=C(Cc1c(F)cccc1Cl)Nc1cccc(N2CCCC2)c1 | -4.34% |
| Cc1nc(C)n(CC2CCCCN2CC(=O)Nc2cccnc2)n1 (stereo not given) | -0.493% |
| CC(C)Cc1cc(CNc2nc(-c3cccnc3)nc3c2CNC3)no1 | -15.7% |
| CCc1nc(CN2CCCC(N(C)Cc3nc(C)c(C)o3)C2)no1 (stereo not given) | -74.1% |
| CN(C)C(C(=O)N1CCC(c2ncc[nH]2)CC1)c1ccc2c(c1)OCO2 (stereo not given) | -5.4% |
| CCN(CC)C(=O)[C@@H]1C[C@H](NC(=O)c2cccn2C(C)C)CN1C | -9.19% |
| O=C(NCC1=CCCCC1)C(c1cccnc1)N1CCCC1 (stereo not given) | 31.3% |
| O=C(CCCn1cncn1)N1CCC2(CCCN(CC3CC3)C2=O)C1 (stereo not given) | 18.3% |
| Cc1noc([C@@H]2C[C@H](NC(=O)C3CCCCC3)CN2C)n1 | 0.213% |
| Cc1nc(CN2CCc3ncnc(C4CCOC4)c3CC2)cs1 (stereo not given) | 0.032% |
| CN(C)c1cc(CNC(=O)c2cnccn2)ccn1 | -8.01% |
| Cc1nnc([C@@H]2C[C@H]3CN(C(=O)c4sccc4C)C[C@H]3O2)[nH]1 | -8.24% |
| Cc1csc(N2CCN(CC(=O)NC3CCOCC3)CC2C)n1 (stereo not given) | -1.39% |
| CC(=O)NCCC(=O)NC1(c2ccc(Cl)c(Cl)c2)CC1 | -3.79% |
| CCn1cnnc1CNC(=O)c1cc(Cl)ccc1I | -10.9% |
| Cc1nccn1C1CCCN(C(=O)c2cccc(OCC(N)=O)c2)C1 (stereo not given) | -10.4% |
| COc1ccc(CC(C)(O)CNC(=O)c2cccs2)cc1 (stereo not given) | -15.5% |
| CCCc1cc(N2CCC(N[C@H]3CC[C@H](O)CC3)CC2)nc(C)n1 | -4.54% |
| CCC(C)NC(=O)Nc1ccc(CN2CCOC2=O)cc1 (stereo not given) | 18.8% |
